What all share (format): binding
One test addresses T1, RPA1789 (Rhodopseudomonas palustris, UniProt Q6N8W4).
T1 construct: mature form, signal peptide removed; N-terminal 6xHis-TEV tag retained; E. coli
T1 sequence (Q6N8W4 27-385): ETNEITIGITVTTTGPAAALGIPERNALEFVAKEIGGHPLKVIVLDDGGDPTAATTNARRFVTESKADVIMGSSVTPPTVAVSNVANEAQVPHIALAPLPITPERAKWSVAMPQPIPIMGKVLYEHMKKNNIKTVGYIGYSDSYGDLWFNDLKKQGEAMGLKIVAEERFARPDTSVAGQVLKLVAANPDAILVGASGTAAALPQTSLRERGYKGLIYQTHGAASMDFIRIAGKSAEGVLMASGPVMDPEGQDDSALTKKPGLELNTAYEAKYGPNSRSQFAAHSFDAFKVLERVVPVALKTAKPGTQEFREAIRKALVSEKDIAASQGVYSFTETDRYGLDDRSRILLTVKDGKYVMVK
Put plainly: fluorescence thermal shift (SYPRO orange). Conditions: 100x ligand over protein (5 or 10 µM protein); 100 mM HEPES, 150 mM NaCl, pH 7.5.

The next test concerns the target T2, RPA2014 (Rhodopseudomonas palustris, UniProt Q6N890).
T2 construct: gene TX73_010380; mature form, signal peptide removed; N-terminal 6xHis-TEV tag retained; E. coli
T2 sequence (Q6N890 31-371): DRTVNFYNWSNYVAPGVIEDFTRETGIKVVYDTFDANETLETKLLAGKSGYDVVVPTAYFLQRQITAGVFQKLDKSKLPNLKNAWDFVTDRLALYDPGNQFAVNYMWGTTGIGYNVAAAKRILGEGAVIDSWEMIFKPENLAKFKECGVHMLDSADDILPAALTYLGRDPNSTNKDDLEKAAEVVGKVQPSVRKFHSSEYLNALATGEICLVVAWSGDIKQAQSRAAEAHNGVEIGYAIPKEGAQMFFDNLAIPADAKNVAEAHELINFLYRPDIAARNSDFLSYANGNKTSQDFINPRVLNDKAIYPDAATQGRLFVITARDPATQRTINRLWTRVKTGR
As to the kind of experiment: fluorescence thermal shift (SYPRO orange). Conditions: 100x ligand over protein (5 or 10 µM protein), 100 mM HEPES, 150 mM NaCl, pH 7.5.

For a further test, the target named is T3, RPA3810 (Rhodopseudomonas palustris, UniProt Q6N384).
T3 construct: gene TX73_019730; mature form, signal peptide removed; N-terminal 6xHis-TEV tag retained; E. coli
T3 sequence (Q6N384 23-368): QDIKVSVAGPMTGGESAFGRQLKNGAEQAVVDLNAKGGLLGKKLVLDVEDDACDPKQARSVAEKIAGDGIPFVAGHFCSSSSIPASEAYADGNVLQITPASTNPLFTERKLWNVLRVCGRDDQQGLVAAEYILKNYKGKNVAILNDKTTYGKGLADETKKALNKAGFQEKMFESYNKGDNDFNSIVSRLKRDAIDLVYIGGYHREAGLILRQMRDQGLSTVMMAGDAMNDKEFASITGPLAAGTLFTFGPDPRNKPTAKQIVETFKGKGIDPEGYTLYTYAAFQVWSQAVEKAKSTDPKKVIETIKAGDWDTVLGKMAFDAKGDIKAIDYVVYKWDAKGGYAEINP
Put plainly: fluorescence thermal shift (SYPRO orange). The note with it: 100x ligand over protein (5 or 10 µM protein); 100 mM HEPES, 150 mM NaCl, pH 7.5.

In a further test the target is T4, RPA0668 (hbaE) (Rhodopseudomonas palustris, UniProt G3XCQ4).
T4 construct: mature form, signal peptide removed; N-terminal 6xHis-TEV tag retained; E. coli
T4 sequence (G3XCQ4 entry or part of it): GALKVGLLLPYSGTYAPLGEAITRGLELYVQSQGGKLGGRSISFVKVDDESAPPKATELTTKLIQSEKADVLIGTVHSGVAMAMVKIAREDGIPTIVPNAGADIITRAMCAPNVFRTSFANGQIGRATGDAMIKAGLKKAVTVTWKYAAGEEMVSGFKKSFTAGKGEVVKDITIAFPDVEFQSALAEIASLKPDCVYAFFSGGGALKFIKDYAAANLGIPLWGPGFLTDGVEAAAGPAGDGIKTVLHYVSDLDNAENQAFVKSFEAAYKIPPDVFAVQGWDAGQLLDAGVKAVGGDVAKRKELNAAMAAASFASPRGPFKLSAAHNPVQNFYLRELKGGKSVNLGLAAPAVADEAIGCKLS
Put plainly: fluorescence thermal shift (SYPRO orange). The note with it: 100x ligand over protein (5 or 10 µM protein); 100 mM HEPES, 150 mM NaCl, pH 7.5.

A further test deals with T5, RPA4029 (Rhodopseudomonas palustris, UniProt Q6N2M1).
T5 construct: gene TX73_020875; mature form, signal peptide removed; N-terminal 6xHis-TEV tag retained; E. coli
T5 sequence (Q6N2M1 28-392): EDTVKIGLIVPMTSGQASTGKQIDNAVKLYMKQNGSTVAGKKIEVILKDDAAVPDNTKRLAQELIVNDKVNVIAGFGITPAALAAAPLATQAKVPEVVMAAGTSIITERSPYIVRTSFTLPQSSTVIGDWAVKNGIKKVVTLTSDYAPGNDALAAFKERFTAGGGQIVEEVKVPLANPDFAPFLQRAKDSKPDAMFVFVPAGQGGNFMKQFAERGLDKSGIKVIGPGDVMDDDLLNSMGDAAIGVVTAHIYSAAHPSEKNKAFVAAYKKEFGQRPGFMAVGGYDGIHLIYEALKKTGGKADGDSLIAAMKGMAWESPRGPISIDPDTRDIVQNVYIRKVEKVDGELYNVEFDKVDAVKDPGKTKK
Put plainly: fluorescence thermal shift (SYPRO orange). The note with it: 100x ligand over protein (5 or 10 µM protein); 100 mM HEPES, 150 mM NaCl, pH 7.5.

The target of a further test is T6, RPA0985 (Rhodopseudomonas palustris, UniProt Q6NB45).
T6 construct: mature form, signal peptide removed; N-terminal 6xHis-TEV tag retained; E. coli
T6 sequence (Q6NB45 23-390): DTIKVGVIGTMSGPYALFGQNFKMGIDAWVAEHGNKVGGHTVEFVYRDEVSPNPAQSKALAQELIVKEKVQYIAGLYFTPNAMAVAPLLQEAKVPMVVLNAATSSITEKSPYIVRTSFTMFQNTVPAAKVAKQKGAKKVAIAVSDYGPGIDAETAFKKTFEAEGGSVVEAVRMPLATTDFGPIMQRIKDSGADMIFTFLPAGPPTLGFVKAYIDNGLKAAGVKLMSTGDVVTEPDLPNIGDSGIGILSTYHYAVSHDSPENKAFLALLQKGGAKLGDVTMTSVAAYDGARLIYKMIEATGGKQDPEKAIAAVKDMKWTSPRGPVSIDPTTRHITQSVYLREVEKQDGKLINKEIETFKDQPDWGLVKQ
As to the kind of experiment: fluorescence thermal shift (SYPRO orange). The note with it: 100x ligand over protein (5 or 10 µM protein); 100 mM HEPES, 150 mM NaCl, pH 7.5.

The target of a further test is T7, RPA0058 (Rhodopseudomonas palustris, UniProt Q6NDP7).
T7 construct: gene ugpB; mature form, signal peptide removed; N-terminal 6xHis-TEV tag retained; E. coli
T7 sequence (Q6NDP7 24-442): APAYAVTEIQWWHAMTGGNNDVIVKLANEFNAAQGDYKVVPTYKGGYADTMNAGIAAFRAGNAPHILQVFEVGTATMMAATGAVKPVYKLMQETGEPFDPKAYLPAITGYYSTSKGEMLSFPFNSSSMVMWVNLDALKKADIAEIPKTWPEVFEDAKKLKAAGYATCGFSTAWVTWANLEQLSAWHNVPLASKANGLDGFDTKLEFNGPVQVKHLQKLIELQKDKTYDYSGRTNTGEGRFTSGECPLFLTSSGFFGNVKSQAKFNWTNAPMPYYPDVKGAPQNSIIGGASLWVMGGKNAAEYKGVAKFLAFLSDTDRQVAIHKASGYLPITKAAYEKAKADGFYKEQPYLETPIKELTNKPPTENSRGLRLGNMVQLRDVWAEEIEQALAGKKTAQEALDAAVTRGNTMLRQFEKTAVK
As to the kind of experiment: fluorescence thermal shift (SYPRO orange). The note with it: 100x ligand over protein (5 or 10 µM protein); 100 mM HEPES, 150 mM NaCl, pH 7.5.

In another test the target is T8, RPA4780 (Rhodopseudomonas palustris, UniProt Q6N0I2).
T8 construct: gene pstS; mature form, signal peptide removed; N-terminal 6xHis-TEV tag retained; E. coli
T8 sequence (Q6N0I2 22-336): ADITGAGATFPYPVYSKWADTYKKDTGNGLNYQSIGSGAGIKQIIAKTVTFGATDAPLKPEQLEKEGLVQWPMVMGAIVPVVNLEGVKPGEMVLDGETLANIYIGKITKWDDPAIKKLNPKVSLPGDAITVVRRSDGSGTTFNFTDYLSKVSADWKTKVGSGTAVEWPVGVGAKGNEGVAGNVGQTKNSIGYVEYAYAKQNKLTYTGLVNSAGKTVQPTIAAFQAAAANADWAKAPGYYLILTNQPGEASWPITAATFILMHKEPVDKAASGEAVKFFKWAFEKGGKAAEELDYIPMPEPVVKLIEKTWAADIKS
The note with it: 100x ligand over protein (5 or 10 µM protein); 100 mM HEPES, 150 mM NaCl, pH 7.5.

Among the data in PMC3223731, “Environment sensing and response mediated by ABC transporters” (BMC Genomics, 2011) are ΔTm values, retold here.

Broadly, the ΔTm is the shift of the melting midpoint relative to a reference. With `COc1cc(/C=C/C(=O)O)ccc1O` [ferulic acid], the ΔTm entry at RPA1789 was “one protein bound p-coumaric acid, ferulic acid, and cinnamic acid with good affinities”.

In the case of `NCCCNCCCCNCCCN` [spermine], the ΔTm result at RPA2014 (low affinity) was “spermine still binds this protein with low affinity in the FTS assay”.

Regarding `NCC(=O)O` [glycine], the ΔTm entry at RPA3810 is “RPA3810, shifted primarily with amino acids with preferences for alanine, glycine and serine”.

For `O=C(O)c1ccccc1O` [salicylic acid], the ΔTm result at RPA0668 (hbaE) is “closely related derivatives, 4-hydroxybenzoic acid, salicylate, and benzaldehyde”.

For `O=C(O)c1ccc(O)cc1` [4-hydroxybenzoic acid], the ΔTm at RPA4029 is 17 °C; on RPA0668 (hbaE), “closely related derivatives, 4-hydroxybenzoic acid, salicylate, and benzaldehyde”; on RPA0985, 29.5 °C.

As for `O=P(O)(O)OC[C@H](O)CO` [glycerol-3-phosphate], on RPA0058, the shift in melting temperature (ΔTm) entry was “RPA0058 and RPA4780 exhibited specific stabilization by glycerol-3-phosphate and phosphate, respectively”.

Regarding `NCCCCN` [putrescine], the ΔTm entry on RPA2014 is “indeed shifted with putrescine preferentially over spermine”.

With `O=C(O)/C=C/c1ccccc1` [cinnamic acid], the ΔTm result on RPA1789 is “one protein bound p-coumaric acid, ferulic acid, and cinnamic acid with good affinities”.

With `O=C(O)/C=C/c1ccc(O)cc1` [p-coumaric acid], the ΔTm entry at RPA1789 is “one protein bound p-coumaric acid, ferulic acid, and cinnamic acid with good affinities”.

For `O=P(O)(O)O` [phosphate], the ΔTm result at RPA4780 was “RPA0058 and RPA4780 exhibited specific stabilization by glycerol-3-phosphate and phosphate, respectively”.
